Laboratory results reported in patent US12146010B2, “Amine co-initiator mixture” (Arkema UK Limited, priority 2019, dated 2024).

How the values were obtained:
[1] = Solubility of amines and amine mixtures in acrylate resins; format: physicochemical; conditions: for Solubility (% w/w at ~15-20° C.): stays in solution at least 7 days, above 10% w/w not tested; for Dissolution of the solid material: at 1% w/w in the acrylate resins
Procedure: This example illustrates the improved solubility of the co-initiator mixtures compared to single component amine co-initiator compositions, illustrating the benefit of providing a composition comprising both the compound of Formula I and the ancillary amine. For comparison, the solubility of amine mixtures as provided by this invention, of which mixtures AM1-AM6 are representative examples, were tested alongside single component formulations comprising only the amines AC1-AC5.
Mixtures of amine synergists were prepared using one of the methods described above.
The solid amines AC1-AC5 or mixtures of amines AM1-AM6 were added portion-wise in 1% w/w portions to stirred 5.0 g samples of the following acrylate resins and the samples were stirred at 15-20° C. until all solid material was completely dissolved: HDDA (1,6-hexanediol diacrylate), TMPTA (trimethylolpropane triacrylate), TPGDA (tripropyleneglycol diacrylate). At the concentrations given below (Table 2a-2k) all solids remained in solution for at least 7 days at 15-20° C. unless otherwise stated. In cases where the solids began to crystallise out of solution within this time the mixtures were warmed to approx. 40° C. to re-dissolve the solids and the concentrations were adjusted to the given values by the addition of extra resin, whereupon the solids remained dissolved at the adjusted concentration for at least 7 days at 15-20° C. Solubility above 10% w/w was not tested in any case. The weight % is based on the total weight of the mixture.

[2] = UV curing experiments: passes under Hg lamp to tack-free / thumb-twist cure; conditions: approx. 16 m/min belt speed, 0.20 g amine in 4.0 g resin with 1% 2-ITX and 4% BP
Procedure: The following example illustrates the high curing speed of co-initiators which contain the compound of Formula I and the ancillary amine. For comparison, the commercially available amine co-initiators SpeedCure EDB (Lambson Limited) and diffusion-hindered polymeric amine SpeedCure 7040 (Lambson Limited) were also tested. Additionally, the pure amines AC1-AC5 were tested alongside the mixtures provided by this invention, of which the mixtures AM1-AM6 are representative examples.
The amine co-initiators or co-initiator mixtures (0.20 g) were added to a resin mixture (4.0 g) containing 1% w/w SpeedCure 2-ITX (Lambson Limited) and 4% w/w SpeedCure BP (Lambson Limited) in 70:30 ethoxylated bisphenol A dimethacrylate (EO/phenol 10):trimethylolpropane triacrylate with stirring at 15-20° C. until all solid material had dissolved.
Formulations were cured at 6 and 24 μm film thicknesses under Hg lamp using a Dymax curing instrument with approx. 16 m/min belt speed. The number of passes under the lamp required to give a ‘tack-free’ (TF) coating (as determined when the surface of the coating no longer feels sticky when lightly touched) or full cure as determined by the ‘thumb-twist’ test (TT) (i.e. until no visible mark is made when a thumb is pressed down firmly onto the coating with a twisting motion) are given in Table 3.

[3] = in HDDA (1,6-hexanediol diacrylate)
[4] = in TMPTA (trimethylolpropane triacrylate)
[5] = in TPGDA (tripropyleneglycol diacrylate)

Solubility (% w/w at ~15-20° C.) [1, 3] [% w/w] | Solubility (% w/w at ~15-20° C.) [1, 4] [% w/w] | Solubility (% w/w at ~15-20° C.) [1, 5] [% w/w] | Dissolution of the solid material [1] | Time until solid crystallised out of solution ([1]; initially dissolved at 2% w/w, all three resins) [h] | Structure (SMILES) | No. of Passes Required, TF (tack-free) ([2]; 6 μm film) [passes] | No. of Passes Required, TT (thumb-twist, full cure) ([2]; 6 μm film) [passes] | No. of Passes Required, TF (tack-free) ([2]; 24 μm film) [passes] | No. of Passes Required, TT (thumb-twist, full cure) ([2]; 24 μm film) [passes]
5 | 4 | 3 | – | – | CCC(COCC(CC)(COC(=O)c1ccc(N(C)C)cc1)COC(=O)c1ccc(N(C)C)cc1)(COC(=O)c1ccc(N(C)C)cc1)COC(=O)c1ccc(N(C)C)cc1 [AC1] | 1 | 5 | 1 | 2
10 | 10 | 10 | – | – | CCC(CO)(COCC(CC)(COC(=O)c1ccc(N(C)C)cc1)COC(=O)c1ccc(N(C)C)cc1)COC(=O)c1ccc(N(C)C)cc1 (stereo not drawn) [AC2] | 1 | 6 | 1 | 2
<1 | <1 | <1 | would not dissolve | – | CN(C)c1ccc(C(=O)OCC(COC(=O)c2ccc(N(C)C)cc2)OC(=O)c2ccc(N(C)C)cc2)cc1 [AC5] | – | – | – | –
<1 | <1 | <1 | would not dissolve | – | CN(C)c1ccc(C(=O)OCC(COC(=O)c2ccc(N(C)C)cc2)(COC(=O)c2ccc(N(C)C)cc2)COC(=O)c2ccc(N(C)C)cc2)cc1 [AC4] | – | – | – | –
– | – | – | – | – | CCOC(=O)c1ccc(N(C)C)cc1 [SpeedCure EDB, ethyl 4-(dimethylamino)benzoate, reference compound] | 1 | 6 | 1 | 2
<2 | <2 | <2 | – | ≤ 24 | CCC(COC(=O)c1ccc(N(C)C)cc1)(COC(=O)c1ccc(N(C)C)cc1)COC(=O)c1ccc(N(C)C)cc1 [AC3] | – | – | – | –
